Test results: ChEMBL document CHEMBL3608201, “Synthesis and biological evaluation of levofloxacin core-based derivatives with potent antibacterial activity against resistant Gram-positive pathogens” (Bioorg Med Chem Lett, 2015)
Values after ≈ are worked out from the molar mass of the structure shown.

Tests used:
Staphylococcus aureus [1] = experiment: Antimicrobial activity against Staphylococcus aureus ATCC 25923 by standard broth microdilution method; type: functional
Staphylococcus aureus [2] = experiment: Antimicrobial activity against methicillin-resistant Staphylococcus aureus clinical isolates by standard broth microdilution method; type: functional
Staphylococcus aureus [3] = experiment: Antimicrobial activity against levofloxacin-resistant Staphylococcus aureus clinical isolates by standard broth microdilution method; type: functional
Streptococcus pneumoniae [4] = experiment: Antimicrobial activity against Streptococcus pneumoniae ATCC 49619 by standard broth microdilution method; type: functional
Streptococcus pneumoniae [5] = experiment: Antimicrobial activity against penicillin-resistant Streptococcus pneumoniae clinical isolates by standard broth microdilution method; type: functional
Streptococcus pyogenes [6] = experiment: Antimicrobial activity against Streptococcus pyogenes ATCC 19615 by standard broth microdilution method; type: functional
[7] = system: Staphylococcus epidermidis; experiment: Antimicrobial activity against Staphylococcus epidermidis ATCC 12228 by standard broth microdilution method; type: functional
[8] = system: Staphylococcus epidermidis; experiment: Antimicrobial activity against methicillin-resistant Staphylococcus epidermidis clinical isolates by standard broth microdilution method; type: functional
Escherichia coli [9] = experiment: Antimicrobial activity against Escherichia coli ATCC 25922 by standard broth microdilution method; type: functional
Escherichia coli [10] = experiment: Antimicrobial activity against ciprofloxacin-resistant Escherichia coli clinical isolates by standard broth microdilution method; type: functional
Pseudomonas aeruginosa = experiment: Antimicrobial activity against Pseudomonas aeruginosa ATCC 27853 by standard broth microdilution method; type: functional
Staphylococcus aureus [11] = experiment: Potency index, ratio of MIC for ciprofloxacin to MIC for test compound against Staphylococcus aureus ATCC 25923 by standard broth microdilution method; type: functional
Staphylococcus aureus [12] = experiment: Potency index, ratio of MIC for moxifloxacin to MIC for test compound against Staphylococcus aureus ATCC 25923 by standard broth microdilution method; type: functional
[13] = Aqueous solubility of the compound in water; type: physicochemical
Streptococcus pneumoniae [14] = experiment: Potency index, ratio of MIC for ciprofloxacin to MIC for test compound against penicillin-resistant Streptococcus pneumoniae clinical isolates by standard broth microdilution method; type: functional
Streptococcus pneumoniae [15] = experiment: Potency index, ratio of MIC for levofloxacin to MIC for test compound against penicillin-resistant Streptococcus pneumoniae clinical isolates by standard broth microdilution method; type: functional
Streptococcus pyogenes [16] = experiment: Potency index, ratio of MIC for ciprofloxacin to MIC for test compound against Streptococcus pyogenes ATCC 19615 by standard broth microdilution method; type: functional
Streptococcus pyogenes [17] = experiment: Potency index, ratio of MIC for levofloxacin to MIC for test compound against Streptococcus pyogenes ATCC 19615 by standard broth microdilution method; type: functional
Streptococcus pneumoniae [18] = experiment: Potency index, ratio of MIC for penicillin to MIC for test compound against penicillin-resistant Streptococcus pneumoniae clinical isolates by standard broth microdilution method; type: functional
Streptococcus pyogenes [19] = experiment: Potency index, ratio of MIC for penicillin to MIC for test compound against Streptococcus pyogenes ATCC 19615 by standard broth microdilution method; type: functional
Staphylococcus aureus [20] = experiment: Potency index, ratio of MIC for moxifloxacin to MIC for test compound against methicillin-resistant Staphylococcus aureus clinical isolates by standard broth microdilution method; type: functional
[21] = Toxicity in ICR mouse administered as single intravenous dose; type: organism-based; details: in vivo
[22] = AUC (0 to infinity) in beagle dog at 18.8 mg/kg, iv administered as single dose; type: ADME, organism-based, Canis lupus familiaris; design: dose 18.8 mg/kg, time infinity, route intravenous; details: in vivo
[23] = Elimination half life in beagle dog at 18.8 mg/kg, iv administered as single dose; type: ADME, organism-based, Canis lupus familiaris; details: in vivo, read-out: beta t1/2 (converted)
[24] = Tmax in beagle dog at 18.8 mg/kg, iv administered as single dose; type: ADME, organism-based, Canis lupus familiaris; details: in vivo
[25] = Plasma clearance in beagle dog at 18.8 mg/kg, iv administered as single dose; type: ADME, organism-based, Canis lupus familiaris
[26] = Volume of distribution in beagle dog at 18.8 mg/kg, iv administered as single dose; type: ADME, organism-based, Canis lupus familiaris; details: in vivo
[27] = Cmax in beagle dog at 18.8 mg/kg, iv administered as single dose; type: ADME, organism-based, Canis lupus familiaris; design: dose 18.8 mg/kg, route intravenous; details: in vivo
Staphylococcus aureus [28] = experiment: Potency index, ratio of MIC for levofloxacin to MIC for test compound against methicillin-resistant Staphylococcus aureus clinical isolates by standard broth microdilution method; type: functional

Compound	MIC (Staphylococcus aureus [1]) [µg/mL]	MIC (Staphylococcus aureus [2]) [µg/mL]	MIC (Staphylococcus aureus [3]) [µg/mL]	MIC (Streptococcus pneumoniae [4]) [µg/mL]	MIC (Streptococcus pneumoniae [5]) [µg/mL]	MIC (Streptococcus pyogenes [6]) [µg/mL]	MIC [7] [µg/mL]	MIC [8] [µg/mL]	MIC (Escherichia coli [9]) [µg/mL]	MIC (Escherichia coli [10]) [µg/mL]	MIC (Pseudomonas aeruginosa) [µg/mL]	further results
C[C@H]1COc2c(N3CCC(O)CC3)c(F)cc3c(=O)c(C(=O)O)cn1c23	0.031 (≈ 0.0856 µM)	1 (≈ 2.76 µM)	0.5 (≈ 1.38 µM)	0.125 (≈ 0.345 µM)	0.031 (≈ 0.0856 µM)	0.0625 (≈ 0.172 µM)	0.031 (≈ 0.0856 µM)	0.5 (≈ 1.38 µM)	0.125 (≈ 0.345 µM)	0.25 (≈ 0.69 µM)	2 (≈ 5.52 µM)	Ratio (Staphylococcus aureus [11]): 16; Ratio (Staphylococcus aureus [12]): 2; solubility [13]: 650 µg/mL (≈ 1790 µM)
C[C@H]1COc2c(N3CCC(O)CC3)c(F)cc3c(=O)c(C(=O)O)cn1c23.N=C(N)NCCC[C@H](N)C(=O)O.O	0.031	1	0.25	0.125	≤ 0.016	≤ 0.016	0.031	1	0.125	0.25	2	Ratio (Streptococcus pneumoniae [14]): 32; Ratio (Streptococcus pneumoniae [15]): 32; Ratio (Streptococcus pyogenes [16]): 32; Ratio (Streptococcus pyogenes [17]): 32; Ratio (Streptococcus pneumoniae [18]): 64; Ratio (Streptococcus pyogenes [19]): 64; Ratio (Staphylococcus aureus [20]): 4; solubility [13]: 5330 µg/mL; LD50 [21]: 1400 mg/kg; AUC(0-inf) [22]: 27000 ng·h/mL; half-life [23]: 3.25 h; Tmax [24]: 4.8 min; clearance [25]: 11.6 mL/min/kg; Vd [26]: 3.27 L/kg; Cmax [27]: 15700 ng/mL
C[C@H]1COc2c(N3CCC(O)CC3)c(F)cc3c(=O)c(C(=O)[O-])cn1c23.[Na+]	0.0625	4	2	0.5	0.125	0.125	0.0625	2	0.25	0.5	2	–
C[C@H]1COc2c(N3CCC(O)CC3)c(F)cc3c(=O)c(C(=O)[O-])cn1c23.[K+]	0.0625	8	4	0.5	0.25	0.25	0.0625	2	0.5	1	2	–
C[C@H]1COc2c(N3CC[C@@H](O)C3)c(F)cc3c(=O)c(C(=O)O)cn1c23	0.0625 (≈ 0.179 µM)	4 (≈ 11.5 µM)	2 (≈ 5.74 µM)	0.25 (≈ 0.718 µM)	0.5 (≈ 1.44 µM)	0.25 (≈ 0.718 µM)	0.0625 (≈ 0.179 µM)	2 (≈ 5.74 µM)	0.125 (≈ 0.359 µM)	0.5 (≈ 1.44 µM)	8 (≈ 23 µM)	–
C[C@H]1COc2c(N3CC[C@H](O)C3)c(F)cc3c(=O)c(C(=O)O)cn1c23	0.031 (≈ 0.089 µM)	1 (≈ 2.87 µM)	0.25 (≈ 0.718 µM)	2 (≈ 5.74 µM)	2 (≈ 5.74 µM)	2 (≈ 5.74 µM)	0.031 (≈ 0.089 µM)	1 (≈ 2.87 µM)	≤ 0.016	0.0625 (≈ 0.179 µM)	1 (≈ 2.87 µM)	Ratio (Staphylococcus aureus [20]): 4; Ratio (Staphylococcus aureus [28]): 32
C[C@H]1COc2c(N3CC[C@H](O)C3)c(F)cc3c(=O)c(C(=O)O)cn1c23.O	0.031	2	0.25	0.125	≤ 0.016	≤ 0.016	0.125	1	0.031	0.0625	1	solubility [13]: 370 µg/mL
C[C@H]1COc2c(N3CC[C@H](O)C3)c(F)cc3c(=O)c(C(=O)[O-])cn1c23.[Na+]	0.0625	4	2	4	4	4	0.125	2	0.0625	0.25	2	–
C[C@H]1COc2c(N3CC[C@H](O)C3)c(F)cc3c(=O)c(C(=O)[O-])cn1c23.[K+]	0.0625	4	2	8	4	4	0.5	4	0.125	0.5	4	–
C[C@H]1COc2c(N3CC(O)C3)c(F)cc3c(=O)c(C(=O)O)cn1c23	0.0625 (≈ 0.187 µM)	8 (≈ 23.9 µM)	1 (≈ 2.99 µM)	0.25 (≈ 0.748 µM)	0.5 (≈ 1.5 µM)	0.125 (≈ 0.374 µM)	0.0625 (≈ 0.187 µM)	2 (≈ 5.98 µM)	0.125 (≈ 0.374 µM)	0.5 (≈ 1.5 µM)	4 (≈ 12 µM)	–
O=C(O)c1cn2c3c(c(N4CCC(O)CC4)c(F)cc3c1=O)OC[C@@H]2CF	0.0625 (≈ 0.164 µM)	2 (≈ 5.26 µM)	0.5 (≈ 1.31 µM)	0.125 (≈ 0.329 µM)	0.031 (≈ 0.0815 µM)	0.031 (≈ 0.0815 µM)	0.0625 (≈ 0.164 µM)	1 (≈ 2.63 µM)	1 (≈ 2.63 µM)	2 (≈ 5.26 µM)	2 (≈ 5.26 µM)	–
O=C(O)c1cn2c3c(c(N4CC[C@@H](O)C4)c(F)cc3c1=O)OC[C@@H]2CF	0.25 (≈ 0.682 µM)	4 (≈ 10.9 µM)	2 (≈ 5.46 µM)	0.5 (≈ 1.36 µM)	0.25 (≈ 0.682 µM)	0.0625 (≈ 0.171 µM)	0.0625 (≈ 0.171 µM)	2 (≈ 5.46 µM)	0.125 (≈ 0.341 µM)	1 (≈ 2.73 µM)	2 (≈ 5.46 µM)	–
O=C(O)c1cn2c3c(c(N4CC[C@H](O)C4)c(F)cc3c1=O)OC[C@@H]2CF	0.031 (≈ 0.0846 µM)	1 (≈ 2.73 µM)	0.5 (≈ 1.36 µM)	0.125 (≈ 0.341 µM)	0.031 (≈ 0.0846 µM)	≤ 0.016	0.031 (≈ 0.0846 µM)	0.5 (≈ 1.36 µM)	0.25 (≈ 0.682 µM)	0.5 (≈ 1.36 µM)	1 (≈ 2.73 µM)	solubility [13]: 440 µg/mL (≈ 1200 µM)
O=C(O)c1cn2c3c(c(N4CC(O)C4)c(F)cc3c1=O)OC[C@@H]2CF	0.125 (≈ 0.355 µM)	–	–	0.25 (≈ 0.71 µM)	–	0.0625 (≈ 0.177 µM)	0.0625 (≈ 0.177 µM)	–	0.25 (≈ 0.71 µM)	–	4 (≈ 11.4 µM)	–
O=C(O)c1cn(C2CC2)c2cc(N3CCNCC3)c(F)cc2c1=O [CIPROFLOXACIN]	–	–	–	2 (≈ 6.04 µM)	–	0.5 (≈ 1.51 µM)	0.0625 (≈ 0.189 µM)	–	≤ 0.016	–	–	–
C[C@H]1COc2c(N3CCN(C)CC3)c(F)cc3c(=O)c(C(=O)O)cn1c23.C[C@H]1COc2c(N3CCN(C)CC3)c(F)cc3c(=O)c(C(=O)O)cn1c23.O [LEVOFLOXACIN]	0.25	32	4	–	–	0.5	0.125	8	≤ 0.016	8	–	LD50 [21]: 358 mg/kg
COc1c(N2C[C@@H]3CCCN[C@@H]3C2)c(F)cc2c(=O)c(C(=O)O)cn(C3CC3)c12 [MOXIFLOXACIN]	–	–	–	0.25 (≈ 0.623 µM)	–	0.25 (≈ 0.623 µM)	≤ 0.016	–	0.031 (≈ 0.0772 µM)	–	4 (≈ 9.96 µM)	–
CC1(C)S[C@@H]2[C@H](NC(=O)Cc3ccccc3)C(=O)N2[C@H]1C(=O)O [PENICILLIN G]	–	–	–	1 (≈ 2.99 µM)	1 (≈ 2.99 µM)	1 (≈ 2.99 µM)	–	–	–	–	–	–
CN[C@H](CC(C)C)C(=O)N[C@H]1C(=O)N[C@@H](CC(N)=O)C(=O)N[C@H]2C(=O)N[C@H]3C(=O)N[C@H](C(=O)N[C@H](C(=O)O)c4cc(O)cc(O)c4-c4cc3ccc4O)[C@H](O)c3ccc(c(Cl)c3)Oc3cc2cc(c3O[C@@H]2O[C@H](CO)[C@@H](O)[C@H](O)[C@H]2O[C@H]2C[C@](C)(N)[C@H](O)[C@H](C)O2)Oc2ccc(cc2Cl)[C@H]1O [VANCOMYCIN]	–	–	–	0.25 (≈ 0.173 µM)	0.125 (≈ 0.0863 µM)	0.0625 (≈ 0.0431 µM)	–	–	–	–	–	–
